[L-RNA-N] = L-ribonucleotide (mirror-image RNA) unit (N: the base)
What was measured:
[1] = tested on: hTERC rG4 WT; assay: Dual-luciferase reporter assay, hTERC rG4 WT, HEK 293T cells; format: cell-based, human
Method: (§1) The DNA sequences encoding hTERC rG4 WT, hTERC rG4 Mut, NRAS rG4 WT, NRAS rG4 Mut, APP rG4 WT, and APP rG4 Mut (Table 1) were respectively introduced into the 5′UTR of the renilla luciferase gene in the psiCHECK-2 vector. 2×10^4 HeLa cells were seeded on 96-well black-wall plates. In sequential addition assay, 10 ng WT and Mut plasmids were transfected to cells by LIPOFECTAMINE® 2000 separately. Subsequently, Tamra_Ahx_R8, Tamra_Ahx_R8_L-Apt.4-1c, and L-Apt.4-1c (0, 100 nM, 200 nM) were separately added to cells after being washed with phosphate buffered saline (PBS) at 4 hours post-transfection and incubated for 48 hours. In co-transfection assay, 10 ng WT or Mut plasmid was co-transfected with Tamra_Ahx_R8, Tamra_Ahx_R8_L-Apt.4-1c, and L-Apt.4-1c (0, 100 nM, 200 nM) separately to cells by LIPOFECTAMINE® 2000 and incubated for 48 hours. Luciferase activity was determined by microplate reader. The renilla activity was normalized to firefly activity for data analysis.

[2] = tested on: hTERC rG4 WT; assay: Dual-luciferase reporter gene assay, hTERC rG4 WT, HeLa cells; format: cell-based, human; conditions: 200 nM, 48 hours
Method: as §1

L-Apt.4-1c: the L-RNA aptamer of SEQ ID NO: 1 (GCCCUAAAGGUGGUGGUGGGAGGGC), non-conjugated control (all [L-RNA-N], backbone not given here)
Effect on normalized luciferase activity, hTERC rG4 WT construct [1]: cannot regulate luciferase activity | Effect on normalized luciferase activity, hTERC rG4 WT construct ([2]; co-transfection with plasmid by LIPOFECTAMINE 2000, 0, 100 nM): only functioned well in co-transfection method | Effect on normalized luciferase activity, hTERC rG4 WT construct ([2]; sequential addition, absence of transfection reagent, 0, 100 nM): neither Tamra_Ahx_R8 peptide nor L-Apt.4-1c modulated luciferase activity

Reference: patent US20240309117A1, “APTAMER-PEPTIDE CONJUGATES” (CITY UNIVERSITY OF HONG KONG, priority 2023, published 2024)
